Laboratory results as given in ChEMBL document CHEMBL3603813, “Quinoline-based antimalarial hybrid compounds” (Bioorg Med Chem, 2015).

What was measured:
[1] = system: Plasmodium falciparum; experiment: Antiplasmodial activity against CQ-sensitive Plasmodium falciparum 3D7; format: functional, organism-based; settings: Plasmodium falciparum, 3D7
[2] = system: Plasmodium falciparum; experiment: Antiplasmodial activity against CQ-resistant Plasmodium falciparum W2 assessed as inhibition of parasite growth; format: functional, organism-based

SMILES | IC50 [1] [nM] | IC50 [2] [nM]
CCc1c(OCc2ccccc2)c(=O)ccn1CCCCNc1ccnc2cc(Cl)ccc12 | < 1000 | 
Cc1ccc(N2C(=O)[C@H](NC(=O)NCCNc3cccc4cc(Cl)ccc34)[C@@H]2/C=C/c2ccccc2)cc1 |  | 42
C=C[C@H]1CN2CC[C@H]1C[C@H]2[C@H](OC(=O)CNC(=O)c1cn(C2CC2)c2nc(N3CCN(CC)CC3)c(F)cc2c1=O)c1ccnc2ccc(OC)cc12 | 12 | 
COc1cc(/C=C2\SC(=S)N(CCNc3ccnc4cc(Cl)ccc34)C2=O)cc(OC)c1OC | < 100 | 
C=C[C@H]1CN2CC[C@H]1C[C@H]2[C@H](O)c1ccnc2ccc(OC)cc12 [QUININE] | 18 | 
C=C[C@H]1CN2CC[C@H]1C[C@H]2[C@H](OC(=O)C(C)NC(=O)c1cn(CC)c2cc3c(cc2c1=O)OCO3)c1ccnc2ccc(OC)cc12 (stereo partly specified) | 12 | 
CCc1c(O)c(=O)ccn1CCCCNc1ccnc2cc(Cl)ccc12 | < 1000 | 
Cc1ccc(N2C(=O)[C@H](NC(=O)CCCNc3ccnc4cc(Cl)ccc34)[C@@H]2/C=C/c2ccccc2)cc1 |  | 80
O=C(NCCCNc1cccc2cc(Cl)ccc12)N[C@H]1C(=O)N(C2CCCCC2)[C@H]1/C=C/c1ccccc1 |  | 42
CN(C)c1ccc(/C=C2\SC(=S)N(CCCCNc3ccnc4cc(Cl)ccc34)C2=O)cc1 | < 100 | 
O=C1/C(=C/c2ccccc2[N+](=O)[O-])SC(=S)N1CCCNc1ccnc2cc(Cl)ccc12 | < 100 | 
Cc1ccc(N2C(=O)[C@@H](NC(=O)C(=O)NCCCNc3ccnc4cc(Cl)ccc34)[C@H]2/C=C/c2ccccc2)cc1 |  | 34
COc1cc(NC(C)CCCNC2CCC3(CC2)OOC2(OO3)C3CC4CC(C3)CC2C4)c2ncccc2c1 (stereo unspecified) |  | 21
COc1cc(/C=C2\SC(=S)N(CCCNc3ccnc4cc(Cl)ccc34)C2=O)cc(OC)c1OC | < 100 | 
O=C(NCCCNc1ccnc2cc(Cl)ccc12)C(=O)N[C@@H]1C(=O)N(C2CCCCC2)[C@@H]1/C=C/c1ccccc1 |  | 34
O=C(NCCNc1cccc2cc(Cl)ccc12)N[C@H]1C(=O)N(C2CCCCC2)[C@H]1/C=C/c1ccccc1 |  | 42

SMILES | IC50 [1] [nM] | IC50 [2] [nM]
O=C(NCCCCCCNc1ccnc2cc(Cl)ccc12)C(=O)N[C@@H]1C(=O)N(C2CCCCC2)[C@@H]1/C=C/c1ccccc1 |  | 34
COc1c(C)n(CCCCNc2ccnc3cc(Cl)ccc23)ccc1=O | < 1000 | 
O=C(NCCCCNc1ccnc2cc(Cl)ccc12)C(=O)N[C@@H]1C(=O)N(C2CCCCC2)[C@@H]1/C=C/c1ccccc1 |  | 34
Cc1ccc(N2C(=O)[C@@H](NC(=O)C(=O)NCCCCNc3ccnc4cc(Cl)ccc34)[C@H]2/C=C/c2ccccc2)cc1 |  | 34
Cc1ccc(N2C(=O)[C@@H](NC(=O)C(=O)NCCNc3ccnc4cc(Cl)ccc34)[C@H]2/C=C/c2ccccc2)cc1 |  | 34
Cc1ccc(N2C(=O)[C@@H](NCCNc3ccnc4cc(Cl)ccc34)[C@H]2/C=C/c2ccccc2)cc1 |  | 80
O=C(NCCCCNc1ccnc2cc(Cl)ccc12)N[C@H]1C(=O)N(C2CCCCC2)[C@H]1/C=C/c1ccccc1 |  | 42
Cc1ccc(N2C(=O)[C@@H](NC(=O)C(=O)NCCCCCCNc3ccnc4cc(Cl)ccc34)[C@H]2/C=C/c2ccccc2)cc1 |  | 34
O=C(N[C@H](c1ccccc1)[C@H](O)C(=O)OCCCNc1ccnc2cc(Cl)ccc12)c1ccccc1 |  | 130
O=C(NCCCCCCNc1ccnc2cc(Cl)ccc12)N[C@H]1C(=O)N(C2CCCCC2)[C@H]1/C=C/c1ccccc1 |  | 42
O=C(NCCNc1ccnc2cc(Cl)ccc12)C(=O)N[C@@H]1C(=O)N(C2CCCCC2)[C@@H]1/C=C/c1ccccc1 |  | 34
CC(=O)O[C@H](C(=O)OCCCNc1ccnc2cc(Cl)ccc12)[C@H](NC(=O)c1ccccc1)c1ccccc1 |  | 160
Cc1ccc(N2C(=O)[C@H](NC(=O)NCCCCNc3ccnc4cc(Cl)ccc34)[C@@H]2/C=C/c2ccccc2)cc1 |  | 42
Cc1ccc(N2C(=O)[C@H](NC(=O)NCCCNc3cccc4cc(Cl)ccc34)[C@@H]2/C=C/c2ccccc2)cc1 |  | 42
Cc1ccc(N2C(=O)[C@H](NC(=O)CCCCCNc3ccnc4cc(Cl)ccc34)[C@@H]2/C=C/c2ccccc2)cc1 |  | 80
